In patent US20110034441A1, “INDAZOLES AS WNT/B-CATENIN SIGNALING PATHWAY INHIBITORS AND THERAPEUTIC USES THEREOF” (EPITHERIX, LLC, priority 2009, published 2011):

The compounds below were run on Wnt (assay: Wnt reporter screening assay: SP5 promoter (TCF/LEF) firefly luciferase in SW480 cells). Conditions: Homo sapiens; SW480 colon cancer cells with SP5 promoter luciferase reporter; 24 hours after compound addition; normalized to DMSO; read-out: Wnt inhibition, IC50.
Type: cell-based
Text: Another screening assay for Wnt activity is described as follows. Reporter cell lines can be generated by stably transducing cells of cancer cell lines (e.g., colon cancer) with a lentiviral construct that include a wnt-responsive promoter driving expression of the firefly luciferase gene.
Lentiviral constructs can be made in which the SP5 promoter, a promoter having eight TCF/LEF binding sites derived from the SP5 promoter, is linked upstream of the firefly luciferase gene. The lentiviral constructs can also include a hygromycin resistance gene as a selectable marker. The SP5 promoter construct can be used to transduce SW480 cells, a colon cancer cell line having a mutated APC gene that generates a truncated APC protein, leading to de-regulated accumulation of β-catenin.
Cultured SW480 cells bearing a reporter construct can be distributed at approximately 10,000 cells per well into 384 well multiwell plates. Compounds from a small molecule compound library can then be added to the wells in half-log dilutions using a three micromolar top concentration. A series of control wells for each cell type receive only buffer and compound solvent. Twenty-four hours after the addition of compound, reporter activity for luciferases can be assayed, for example, by addition of the BrightGlo luminescence reagent (Promega) and the Victor3 plate reader (Perkin Elmer). Readings can be normalized to DMSO only treated cells, and normalized activities can then be used in the IC50 calculations.
With `CCC(CC)NC(=O)c1ccc2[nH]nc(-c3nc4ccccc4[nH]3)c2c1` [Compound 1, 3-(1H-benzo[d]imidazol-2-yl)-N-(pentan-3-yl)-1H-indazole-5-carboxamide] the IC50 was 0.2 to 0.31 µM. With `O=C(NC1CCCN(S(=O)(=O)c2ccccc2F)C1)c1ccc2[nH]nc(-c3nc4ccccc4[nH]3)c2c1` (stereo not drawn) [Compound 2] the IC50 was 0.5 µM. In the case of `CN1CCC(CNC(=O)c2ccc3[nH]nc(-c4nc5ccccc5[nH]4)c3c2)C1` (stereo not drawn) [Compound 3], the IC50 is reported as 0.58 µM. In the case of `O=C(NC1Cc2ccccc2C1)c1ccc2[nH]nc(-c3nc4ccccc4[nH]3)c2c1` [Compound 4], the IC50 is reported as 0.6 µM. `CN1CCCCC1CNC(=O)c1ccc2[nH]nc(-c3nc4ccccc4[nH]3)c2c1` (stereo not drawn) [Compound 5] was tested, and the IC50 was 0.63 µM. In the case of `CS(=O)(=O)N1CCCC(NC(=O)c2ccc3[nH]nc(-c4nc5ccccc5[nH]4)c3c2)C1` (stereo not drawn) [Compound 7], the IC50 is reported as 0.8 µM. `CC(C)CC(=O)N1CC2CC1CN2C(=O)c1ccc2[nH]nc(-c3nc4ccccc4[nH]3)c2c1` (stereo not drawn) [Compound 8] was tested, and the IC50 was 0.93 µM. `O=C(NC1CCCN(S(=O)(=O)c2cccc(F)c2)C1)c1ccc2[nH]nc(-c3nc4ccccc4[nH]3)c2c1` (stereo not drawn) [Compound 9] gave an IC50 of 1 µM. `O=C(NC1CCc2ccccc21)c1ccc2[nH]nc(-c3nc4ccccc4[nH]3)c2c1` (stereo not drawn) [Compound 10] showed an IC50 of 1 µM. `COc1ccc(S(=O)(=O)N2CCCC(NC(=O)c3ccc4[nH]nc(-c5nc6ccccc6[nH]5)c4c3)C2)cc1` (stereo not drawn) [Compound 11] gave an IC50 of 1.3 µM. `O=C(NCC1(O)CCCCC1)c1ccc2[nH]nc(-c3nc4ccccc4[nH]3)c2c1` [Compound 12] gave an IC50 of 1.6 µM. With `CS(=O)(=O)N1CCCC(CNC(=O)c2ccc3[nH]nc(-c4nc5ccccc5[nH]4)c3c2)C1` (stereo not drawn) [Compound 13] the IC50 was 1.8 µM. `Cc1ccccc1OC1CCN(C(=O)c2ccc3[nH]nc(-c4nc5ccccc5[nH]4)c3c2)C1` (stereo not drawn) [Compound 14] was tested, and the IC50 was 1.9 µM. For `Cc1ccccc1C1CCCN1C(=O)c1ccc2[nH]nc(-c3nc4ccccc4[nH]3)c2c1` (stereo not drawn) [Compound 15], the IC50 was 3 µM. Compound `O=C(c1ccc2[nH]nc(-c3nc4ccccc4[nH]3)c2c1)N1CCCC1c1ccccc1` (stereo not drawn) [Compound 16] has an IC50 of 3.1 µM. `CC[C@H](C)[C@@H](CO)NC(=O)c1ccc2[nH]nc(-c3nc4ccccc4[nH]3)c2c1` [Compound 17] gave an IC50 of 0.75 µM. `Cc1ccccc1O[C@@H]1CCN(C(=O)c2ccc3[nH]nc(-c4nc5ccccc5[nH]4)c3c2)C1` [Compound 18] gave an IC50 of 1.9 µM. `O=C(NC1CCN(Cc2ccccc2)CC1)c1ccc2[nH]nc(-c3nc4ccccc4[nH]3)c2c1` [Compound 19, 3-(1H-benzo[d]imidazol-2-yl)-N-(1-benzylpiperidin-4-yl)-1H-indazole-5-carboxamide] was tested, and the IC50 was 0.33 to 0.4 µM. For `O=C(c1ccc2[nH]nc(-c3nc4ccccc4[nH]3)c2c1)N1CCCC1` [Compound 20, (3-(1H-benzo[d]imidazol-2-yl)-1H-indazol-5-yl)(pyrrolidin-1-yl)methanone], the IC50 was 0.606 µM. In the case of `Cc1ccc(CN2CCN(C(=O)c3ccc4[nH]nc(-c5nc6ccccc6[nH]5)c4c3)CC2)cc1` [Compound 21, (3-(1H-benzo[d]imidazol-2-yl)-1H-indazol-5-yl)(4-(4-methylbenzyl)piperazin-1-yl)methanone], the IC50 is reported as 5.3 µM. Compound `CN1CCCN(C(=O)c2ccc3[nH]nc(-c4nc5ccccc5[nH]4)c3c2)CC1` [Compound 22, (3-(1H-benzo[d]imidazol-2-yl)-1H-indazol-5-yl)(4-methyl-1,4-diazepan-1-yl)methanone] has an IC50 of 1.85 µM. `O=C(c1ccc2[nH]nc(-c3nc4ccccc4[nH]3)c2c1)N1CCOCC1` [Compound 23, (3-(1H-benzo[d]imidazol-2-yl)-1H-indazol-5-yl)(morpholino) methanone] was tested, and the IC50 was > 10 µM. With `O=C(c1ccc2[nH]nc(-c3nc4ccccc4[nH]3)c2c1)N1CCSCC1` [Compound 24, (3-(1H-benzo[d]imidazol-2-yl)-1H-indazol-5-yl)(thiomorpholino)methanone] the IC50 was 8 µM. For `CN1CCN(C(=O)c2ccc3[nH]nc(-c4nc5ccccc5[nH]4)c3c2)CC1` [Compound 25, [3-(1H-benzimidazol-2-yl)-1H-indazole-5-yl]-(4-methyl-piperazin-1-yl)-methanone], the IC50 was > 10 µM. `O=C(c1ccc2[nH]nc(-c3nc4ccccc4[nH]3)c2c1)N1CCCCC1` [Compound 26, (3-(1H-benzo[d]imidazol-2-yl)-1H-indazol-5-yl)(piperidin-1-yl)methanone] was tested, and the IC50 was > 10 µM. `N#Cc1ccc2[nH]nc(-c3nc4ccccc4[nH]3)c2c1` [Compound 27, 3-(1H-benzo[d]imidazol-2-yl)-1H-indazole-5-carbonitrile] was tested, and the IC50 was > 10 µM. Compound `NC(=O)c1ccc2[nH]nc(-c3nc4ccccc4[nH]3)c2c1` [Compound 28, 3-(1H-benzo[d]imidazol-2-yl)-1H-indazole-5-carboxamide] has an IC50 of 1 µM. With `O=C(O)c1ccc2[nH]nc(-c3nc4ccccc4[nH]3)c2c1` [Compound 29, 3-(1H-benzimidazol-2-yl)-1H-indazole-5-carboxylic acid] the IC50 was > 10 µM. Compound `CN(C)C(=O)c1ccc2[nH]nc(-c3nc4ccccc4[nH]3)c2c1` [Compound 30, 3-(1H-benzo[d]imidazol-2-yl)-N,N-dimethyl-1H-indazole-5-carboxamide] has an IC50 of 2 µM. Work on `CCNCc1cncc(-c2ccc3[nH]nc(-c4nc5ccccc5[nH]4)c3c2)c1C` [Compound 31, N-((5-(3-(1H-benzo[d]imidazol-2-yl)-1H-indazol-5-yl)-4-methylpyridin-3-yl)methyl)ethanamine] yielded an IC50 of 0.243 µM. `CCNCc1cncc(-c2ccc3[nH]nc(-c4nc5c(-n6cnc(C)c6)cccc5[nH]4)c3c2)c1C` [Compound 32, N-((4-methyl-5-(3-(4-(4-methyl-1H-imidazol-1-yl)-1H-benzo[d]imidazol-2-yl)-1H-indazol-5-yl)pyridin-3-yl)methyl)ethanamine] gave an IC50 of 0.04 to 0.063 µM. In the case of `CCNCc1cncc(-c2ccc3[nH]nc(-c4nc5ccc(COC)cc5[nH]4)c3c2)c1C` [Compound 33], the IC50 is reported as 0.68 µM. `Cc1cn(-c2cccc3[nH]c(-c4n[nH]c5ccc(-c6cnccc6C)cc45)nc23)cn1` [Compound 34, 3-(4-(4-methyl-1H-imidazol-1-yl)-1H-benzo[d]imidazol-2-yl)-5-(4-methylpyridin-3-yl)-1H-indazole] gave an IC50 of 0.01 to 0.046 µM. In the case of `CCNCc1cncc(-c2ccc3[nH]nc(-c4nc5c(N6CCCCC6)cccc5[nH]4)c3c2)c1C` [Compound 35, N-((4-methyl-5-(3-(4-(piperidin-1-yl)-1H-benzo[d]imidazol-2-yl)-1H-indazol-5-yl)pyridin-3-yl)methyl)ethanamine], the IC50 is reported as 0.147 to 0.243 µM. For `CCNCc1cncc(-c2ccc3[nH]nc(-c4nc5c(N6CCCC6)cccc5[nH]4)c3c2)c1C` [Compound 36, N-((4-methyl-5-(3-(4-(pyrrolidin-1-yl)-1H-benzo[d]imidazol-2-yl)-1H-indazol-5-yl)pyridin-3-yl)methyl)ethanamine], the IC50 was 0.75 µM. `CCNCc1cncc(-c2ccc3[nH]nc(-c4nc5c(-c6cccnc6)cccc5[nH]4)c3c2)c1C` [Compound 37, N-((4-methyl-5-(3-(4-(pyridin-3-yl)-1H-benzo[d]imidazol-2-yl)-1H-indazol-5-yl)pyridin-3-yl)methyl)ethanamine] was tested, and the IC50 was 0.2 to 0.24 µM. `CCNCc1cncc(-c2ccc3[nH]nc(-c4nc5ccccc5[nH]4)c3c2)c1` [Compound 38, N-((5-(3-(1H-benzo[d]imidazol-2-yl)-1H-indazol-5-yl)pyridin-3-yl)methyl)ethanamine] showed an IC50 of 0.124 to 0.235 µM. With `CCNCc1cncc(-c2ccc3[nH]nc(-c4nc5c(-c6ccccc6)cccc5[nH]4)c3c2)c1C` [Compound 39, N-((4-methyl-5-(3-(4-phenyl-1H-benzo[d]imidazol-2-yl)-1H-indazol-5-yl)pyridin-3-yl)methyl)ethanamine] the IC50 was 0.69 to 0.73 µM. `CCNCc1cncc(-c2ccc3[nH]nc(-c4nc5c(-c6cccc(C)c6)cccc5[nH]4)c3c2)c1C` [Compound 40, N-((4-methyl-5-(3-(4-m-tolyl-1H-benzo[d]imidazol-2-yl)-1H-indazol-5-yl)pyridin-3-yl)methyl)ethanamine] was tested, and the IC50 was 0.67 to 0.86 µM. With `CCNCc1cncc(-c2ccc3[nH]nc(-c4nc5c(-c6ccc(C)cc6)cccc5[nH]4)c3c2)c1C` [Compound 41, N-((4-methyl-5-(3-(4-p-tolyl-1H-benzo[d]imidazol-2-yl)-1H-indazol-5-yl)pyridin-3-yl)methyl)ethanamine] the IC50 was 0.33 to 0.47 µM. In the case of `CCNCc1cncc(-c2ccc3[nH]nc(-c4nc5c(-c6ccccc6C)cccc5[nH]4)c3c2)c1C` [Compound 42, N-((4-methyl-5-(3-(4-o-tolyl-1H-benzo[d]imidazol-2-yl)-1H-indazol-5-yl)pyridin-3-yl)methyl)ethanamine], the IC50 is reported as 2.5 to 3.6 µM. Work on `CCNC(=O)c1cncc(-c2ccc3[nH]nc(-c4nc5ccccc5[nH]4)c3c2)c1` [Compound 44, 5-(3-(1H-benzo[d]imidazol-2-yl)-1H-indazol-5-yl)-N-ethyl nicotinamide] yielded an IC50 of 0.96 to 1.56 µM. Compound `O=C(NCc1ccccc1)c1cncc(-c2ccc3[nH]nc(-c4nc5ccccc5[nH]4)c3c2)c1` [Compound 45, 5-(3-(1H-benzo[d]imidazol-2-yl)-1H-indazol-5-yl)-N-benzylnicotinamide] has an IC50 of 1.23 to 2.28 µM. `Cc1cc(C)cc(-c2ccc3c(NC(=O)NCC4CC4)n[nH]c3c2)c1` [Compound 48] gave an IC50 of 0.39 µM. `Cc1ccc(-n2nc(C(N)=O)c3ccc4[nH]ncc4c32)cc1` [Compound 123] was tested, and the IC50 was 1.22 µM.
